The text below walks through data of patent publication US20250269093A1, “METHODS OF ENHANCING ANTIMICROBIAL EFFICACY OF LOCAL ANESTHETICS” (Chinook Contract Research Inc., priority 2023, published 2025).

In assay [1] the test system is S. epidermidis ATCC 35984. As to the kind of experiment: Broth microdilution assay (MIC). Type of assay: cell-based, Staphylococcus epidermidis. The settings on record: for MIC: broth microdilution, 16-24 hours at 37° C.; for MIC +1 mg/mL LD: titrated in a constant concentration of 1 mg/mL lidocaine base. As for the experimental part: (§1) Broth Microdilution Assay: A stock solution of each test article was serially diluted in a 96-well plate for a final volume of 0.1 mL per well. […] Turbidity was assessed after 16-24 hours at 37° C. (100 rpm).
(§2) Incubated at 37° C. at 200 rpm for approximately 2 hours to fully dissolve the powder. Filter sterilized.
(§3) Prepared a 2× stock of lidocaine HCl by dissolving 500 mg per 10 mL OSB (=50 mg/mL). Filter sterilized.
(§4) Serially diluted (2-fold series) the contents of rows B to G: Removed 100 μL from row B to row C and mixed by pipetting up and down at least 3 times. Discarded the tips.
(§5) For bacteria: Mixed 10 μL O/N with 990 μL OSB for ˜10^7 CFU/mL, then mixed 100 μL of the ˜10^7 CFU/mL culture with 9.90 mL BGM for ˜10^5 CFU/mL. • b. For yeast: Mixed 100 μL O/N with 9.90 mL BGM for ˜10^5 CFU/mL.
(§6) Immediately poured the ˜10^5 CFU/mL inoculum into a sterile reagent reservoir and used a multichannel pipettor to aliquot 100 μL into each well of the 96-well plates, excluding row H. Mixed by pipetting up and down at least 3 times. Added uninoculated BGM to row H.
(§7) Sealed the plates in sandwich bags and incubated at 37±1° C. for 16-24 hours (100 rpm).
(§8) Visually scored for growth, which appeared as turbidity or as a deposit of cells at the bottom of a well.
(§9) Determined the MIC (minimum inhibitory concentration) for each organism. The MIC was defined as the minimum concentration that inhibited growth of the organism.
(§10) MIC determination from Broth Microdilution: MIC results were determined following the overnight incubation of the broth microdilution plates. Ensured that the SC wells were free of growth and that the GC wells were positive for growth. To determine the minimum inhibitory concentration (MIC) values, checked for turbidity in the wells of the challenge plate and scored. The MIC was defined as the minimum concentration that inhibited visible growth of the organism.
In general terms: Dilution methods test growth across graded concentrations, often in twofold steps.

The test system of another assay is P. aeruginosa ATCC 15442. As to the kind of experiment: Broth microdilution assay (MIC). The settings on record: for MIC: broth microdilution, 16-24 hours at 37° C.; for MIC +1 mg/mL LD: titrated in a constant concentration of 1 mg/mL lidocaine base. The format is cell-based, Pseudomonas aeruginosa. As for the experimental part:
as §1, §2, §3, §4, §5, §6, §7, §8, §9, §10

Assay [2] deals with all seven tested organisms. The assay is described as follows: Broth microdilution assay (MIC), summary over the panel. The format is cell-based. The settings on record: for MIC (plus lidocaine base): all seven organisms, constant concentration of 1 mg/mL lidocaine base. As for the experimental part:
as §1
Prepared a 2× stock solution of lidocaine by dissolving 20 mg of free-base lidocaine per 10 mL of OSB (=2 mg/mL). Incubated at 37° C. at 200 rpm for approximately 2 hours to fully dissolve the powder. Filter sterilized.
as §3
Prepared 2× stock (=8% v/v) of DMSO or NMP by mixing 800 μL of either with 9.2 mL of OSB or with OSB plus 2 mg/mL lidocaine base.
Aliquoted 200 μL of the 2× stock of LD-HCl, LD base, DMSO, NMP, DMSO+LD base, or NMP+LD base into wells B1-2, B3-4, B5-6, B7-8, B9-10, or B11-12, respectively.
as §4, §5, §6, §7, §8, §9
MIC determination from Broth Microdilution: MIC results were determined following the overnight incubation of the broth microdilution plates. […] To determine the minimum inhibitory concentration (MIC) values, checked for turbidity in the wells of the challenge plate and scored. […]

A further assay concerns E. faecalis ATCC 51575. As to the kind of experiment: Broth microdilution assay (MIC). The settings on record: for MIC: broth microdilution, 16-24 hours at 37° C.; for MIC +1 mg/mL LD: titrated in a constant concentration of 1 mg/mL lidocaine base. Type of assay: cell-based, Enterococcus faecalis. As for the experimental part: as §1, §2, §3, §4, §5, §6, §7, §8, §9, §10

The test system of assay [3] is S. aureus ATCC 29213. As to the kind of experiment: Broth microdilution assay (MIC). The format is cell-based, Staphylococcus aureus. The settings on record: for MIC: broth microdilution, 16-24 hours at 37° C.; for MIC +1 mg/mL LD: titrated in a constant concentration of 1 mg/mL lidocaine base. As for the experimental part: as §1, §2, §3, §4, §5, §6, §7, §8, §9, §10

Another assay relates to C. albicans ATCC 10231. The assay is described as follows: Broth microdilution assay (MIC). Type of assay: cell-based, Candida albicans. To be noted: for MIC: broth microdilution, 16-24 hours at 37° C.; for MIC +1 mg/mL LD: titrated in a constant concentration of 1 mg/mL lidocaine base. As for the experimental part: as §1, §2, §3, §4, §5, §6, §7, §8, §9, §10
Assay [4] concerns E. coli ATCC 25922. The assay is described as follows: Broth microdilution assay (MIC). The settings on record: for MIC: broth microdilution, 16-24 hours at 37° C.; for MIC +1 mg/mL LD: titrated in a constant concentration of 1 mg/mL lidocaine base. Type of assay: cell-based, Escherichia coli. As to the method: as §1, §2, §3, §4, §5, §6, §7, §8, §9, §10
Another assay deals with P. mirabilis ATCC 29906. The assay is described as follows: Broth microdilution assay (MIC). Type of assay: cell-based, Proteus mirabilis. To be noted: for MIC: broth microdilution, 16-24 hours at 37° C.; for MIC +1 mg/mL LD: titrated in a constant concentration of 1 mg/mL lidocaine base. As to the method: as §1, §2, §3, §4, §5, §6, §7, §8, §9, §10
The test system of assay [5] is E. coli ATCC 25922. The settings on record: cited from earlier work.
The next assay relates to P. aeruginosa ATCC 27853. The settings on record: cited from earlier work.
For assay [6], the system named is S. aureus ATCC 29213. To be noted: cited from earlier work.

Where a name gives a salt, the structure may show the parent alone. Read-outs that look alike come from different tables or passages of the source. Some results are limits rather than exact numbers.

`C[S+](C)[O-]` [DMSO, Dimethyl Sulfoxide]: the MIC (in assay [1]; in the assay on P. aeruginosa ATCC 15442; in the assay on E. faecalis ATCC 51575; in the assay on S. aureus ATCC 29213 [3]; in the assay with C. albicans ATCC 10231; with E. coli ATCC 25922 [4]) was over 4.00 % v/v throughout. The MIC in the assay with P. mirabilis ATCC 29906 is listed as over 4.00 % v/v. The “MIC +1 mg/mL LD” value (in assay [1]; with P. aeruginosa ATCC 15442; in the assay on E. faecalis ATCC 51575; in the assay with S. aureus ATCC 29213 [3]; in the assay with C. albicans ATCC 10231; in the assay with E. coli ATCC 25922 [4]) was over 4.00 % v/v throughout. Also, the “MIC +1 mg/mL LD” value with P. mirabilis ATCC 29906 was over 4.00 % v/v. Also, the “MIC (plus lidocaine base)” value in assay [2] was over 4 % v/v.

As for `CCN(CC)CC(=O)Nc1c(C)cccc1C` [LD-B, Free base lidocaine], the MIC (in [1]; against P. aeruginosa ATCC 15442; against E. faecalis ATCC 51575; in the assay with S. aureus ATCC 29213 [3]; in the assay on C. albicans ATCC 10231; against E. coli ATCC 25922 [4]) was over 1.00 mg/mL each time. In addition, in the assay with P. mirabilis ATCC 29906, the MIC is recorded as over 1.00 mg/mL.

As for `CCN(CC)CC(=O)Nc1c(C)cccc1C` [LD-HCl, Lidocaine hydrochloride], the MIC in assay [1] (Staphylococcus epidermidis, ATCC35984, read-out: MIC) is 25 mg/mL; in the assay with P. aeruginosa ATCC 15442 (Pseudomonas aeruginosa, ATCC15442, read-out: MIC), 25 mg/mL; in the assay with E. faecalis ATCC 51575 (Enterococcus faecalis, ATCC51575, read-out: MIC), 25 mg/mL; in the assay on S. aureus ATCC 29213 [3] (Staphylococcus aureus, ATCC29213, read-out: MIC) it was 12.5 mg/mL; with C. albicans ATCC 10231 (Candida albicans, ATCC10231, read-out: MIC) it was 12.5 mg/mL; in the assay with E. coli ATCC 25922 [4] (Escherichia coli, ATCC25922, read-out: MIC) it was 6.25 mg/mL. Besides, in the assay on P. mirabilis ATCC 29906 (Proteus mirabilis, ATCC29906, read-out: MIC), the MIC came out at 12.5 mg/mL. Also, the “MIC (published literature)” value is recorded as 5.00 mg/mL in the assay with E. coli ATCC 25922 [5], over 20.0 mg/mL in the assay on P. aeruginosa ATCC 27853 and 20.0 mg/mL in the assay with S. aureus ATCC 29213 [6].

On to `CN1CCCC1=O` [NMP, n-methyl-2-pyrrolidone], for which the MIC in [1] is reported as 4.00 % v/v; with P. aeruginosa ATCC 15442, 4.00 % v/v; in [2] (for all seven tested organisms, maximum challenge concentration 4% v/v), 4 % v/v; with E. faecalis ATCC 51575, 4.00 % v/v; in the assay with S. aureus ATCC 29213 [3], 4.00 % v/v; in the assay with C. albicans ATCC 10231, 4.00 % v/v. The MIC in the assay on E. coli ATCC 25922 [4] and in the assay with P. mirabilis ATCC 29906 was 4.00 % v/v throughout. In addition, the “MIC +1 mg/mL LD” value (in assay [1]; in the assay with P. aeruginosa ATCC 15442; against E. faecalis ATCC 51575; in the assay on S. aureus ATCC 29213 [3]; against C. albicans ATCC 10231; with E. coli ATCC 25922 [4]) was 4.00 % v/v throughout. Further, the “MIC +1 mg/mL LD” value with P. mirabilis ATCC 29906 is listed as 4.00 % v/v. Moreover, in assay [2], the “MIC (plus lidocaine base)” value is on record as 4 % v/v.
